Experimental data published in US6544768B1, “Mammalian soluble adenylyl cyclase” (Cornell Research Foundation, Inc., priority 1999, dated 2003).
Like-named read-outs stand apart in the source and are kept apart here.

Columns and labels:
truncated form of sAC = biological target: T1, truncated form of sAC (Rattus norvegicus, UniProt Q9Z286); assay: P site ligand test on truncated sAC; format: biochemical
T1 construct: sACt, amino acids 1-469
T1 sequence (Q9Z286 1-469): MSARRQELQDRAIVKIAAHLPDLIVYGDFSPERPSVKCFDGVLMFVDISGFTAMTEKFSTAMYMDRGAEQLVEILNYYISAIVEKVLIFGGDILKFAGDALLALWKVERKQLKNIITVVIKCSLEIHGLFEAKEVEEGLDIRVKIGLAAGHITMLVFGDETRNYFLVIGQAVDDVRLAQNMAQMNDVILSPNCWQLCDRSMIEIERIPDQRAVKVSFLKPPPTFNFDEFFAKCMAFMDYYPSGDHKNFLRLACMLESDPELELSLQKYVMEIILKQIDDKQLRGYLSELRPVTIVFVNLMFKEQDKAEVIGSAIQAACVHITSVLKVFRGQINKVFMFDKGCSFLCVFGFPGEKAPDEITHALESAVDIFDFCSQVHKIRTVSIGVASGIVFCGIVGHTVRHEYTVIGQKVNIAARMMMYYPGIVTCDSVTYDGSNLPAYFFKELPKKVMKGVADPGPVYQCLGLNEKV
Source text: (3) P site ligands and inhibitors of other ATP-utilizing enzymes.

sAC [1] = conditions: read-out: Km of sAC for substrate ATP; cited from earlier work
tmACs = conditions: read-out: Km of tmACs for substrate ATP; cited from earlier work
sAC [2] = assay: Soluble adenylyl cyclase activity in cytosolic extracts from rat testis; conditions: read-out: Km for ATP; in the presence of MnCl2
[3] = biological target: T2, full-length and truncated forms of sAC (Rattus norvegicus, UniProt Q9Z286); assay: Adenylyl cyclase assay in whole-cell sonicates from sAC-transfected HEK293 cells; format: biochemical; conditions: both full-length and truncated forms
T2 construct: we heterologously expressed the full-length cDNA in HEK293 cells; expressed in transfected cells; host or cells: HEK293, transient, pBK-CMV
Source text: Heterologous Expression. To confirm that the gene we isolated encoded an adenylyl cyclase, we heterologously expressed the full-length cDNA in HEK293 cells. The full-length and truncated sAC cDNAs were expressed from the library vector (pBK-CMV) under the control of the cytomegalovirus promoter after deletion of the intervening bacterial promoter sequences (as an NheI-SpeI fragment). The truncated sAC cDNA (sACt) represented a library clone that was missing an exon. The resultant protein shifted the reading frame after valine 469 (FIG. 1; underline), introducing two incorrect amino acids (serine and cysteine) followed by a stop codon. Expression constructs were transiently introduced into HEK293 by lipofectamine—mediated transfection (Life Technologies, Grand Island, N.Y.). One or two days after transfection, cells were harvested, resuspended in lysis buffer (50 mM Tris-HCl, pH 7.5/1 mM EDTA/1 mM DTT/0.1 mg/ml Leupeptin/1 mM phenylmethylsulfonyl fluoride) and disrupted by microtip probe sonication on ice. Whole-cell sonicates were ultramicrocentrifuged at >100,000×g for 10 minutes. Supernatants were cleared by a second centrifugation to yield ‘cytosolic’ extracts. Pellets were resuspended in lysis buffer by passage through a 27.5-gauge needle to generate ‘particulate fraction. […]

[4] = biological target: T3, Purified recombinant sACt protein (Rattus norvegicus, UniProt Q9Z286); assay: In vitro adenylyl cyclase assay with purified recombinant sACt; format: biochemical; conditions: for % Basal (adenylyl cyclase activity relative to activity in the absence of any salts): salts at 50 mM
T3 construct: sACt, amino acids 1-469, plus a C-terminal Hexahistidine tag; Hexahistidine (C); made in house; host or cells: insect HiFive cells (baculovirus, Bac-to-Bac)
T3 sequence (Q9Z286 1-469): T1 sequence (Q9Z286 1-469)
Experimental: (§1) The cell lines were starved for bicarbonate (grown in HEPES-bufferred, NaHCO3-free D-MEM under ambient CO2) for 24 hours. Cellular cAMP accumulation and in vitro adenylyl cyclase activity in the presence of [a^32P] ATP and MnCl2 or MgCl2 were assayed. In vitro adenylyl cyclase assays were performed at pH 7.5 in Tris-buffered solutions.
Kinetic parameters were determined using KinetAsyst II (IntelliKinetics).

soluble adenylyl cyclase = conditions: cited from earlier work
sAC [5] = assay: Adenylyl cyclase activity in anti-sAC immunoprecipitates from rat testis cytosol; format: biochemical; conditions: 40 mM NaHCO3 or 100 μM Forskolin
Experimental: Rat testis were tested for sAC activity by immunoassay. Immunoprecipitates from rat testis cytosol were tested using either pre-immune serum or α-sAC antisera. […]. […]. Data in FIG. 4b are presented as pmol of cAMP formed over 20 minutes, and values represent averages of duplicate determinations with standard deviations indicated.

sACfl = sACfl (Rattus norvegicus, UniProt Q9Z286)
Experimental: as §1

[6] = test system: HEK293/V cells, which express endogenous tmACs; conditions: for Cellular cAMP accumulation in HEK293/V: vector transfected cells
Experimental: as §1
Among mammalian adenylyl cyclases, sAC appears to be the only form regulated by bicarbonate ions.

Spirulina platensis CyaC [7] = biological target: T4, Spirulina platensis CyaC (Limnospira platensis, UniProt O32393); conditions: 0-60 mM NaHCO3, 100 μM ATP, 5 mM MnCl2
Spirulina platensis CyaC [8] = biological target: T4, Spirulina platensis CyaC; assay: biochemical
sAC [9] = assay: Ecdysone inducible sAC expression in transiently transfected NIH3T3 cells; format: cell-based; conditions: transient transfection
Source text: The commercially available (Invitrogen) ecdysone inducible system (No, D. et al., PNAS, 1996, 93:3346-3351) is based on an insect hormone regulated transcriptional activator, the ecdysone receptor (EcR). This system takes advantage of the specificity of EcR for its own response element, and the lack of any cross-reactivity by any mammalian transcription factor. We stably introduced both the EcR and its requisite partner, Retinoid X Receptor (RXR) into NIH3T3 cells. Additionally, to confirm the efficacy of this expression system, we performed pilot experiments with 3T3 cells transiently transfected with both plasmids. […] This induction was overcome by co-expression of sAC antisense (αsAA). The sequence was the entire sAC truncated (sAC trunc) sequence cloned in reverse orientation with respect to the promoter. The coding sequence for sAC trunc was approximately 1 through 1710 and the antisense was nucleotides 1710 through 1. For the antisense experiment, we transiently transfected three plasmids into NIH3T3 cells: 1) Ecdysone receptor/RXR expression plasmid; 2) sAC trunc expression plasmid (driven by ecdysone promoter) and 3) antisense expression plasmid (driven by ecdysone promoter).

[10] = biological target: sAC as co-expressed with mammalian CAP; assay: cell-based or functional assay
sAC [11] = biological target: T5, sAC (Rattus norvegicus, UniProt Q9Z286); assay: Co-expression of mammalian CAP with sAC
T5 construct: expressed in transfected cells
T5 sequence (Q9Z286 whole entry): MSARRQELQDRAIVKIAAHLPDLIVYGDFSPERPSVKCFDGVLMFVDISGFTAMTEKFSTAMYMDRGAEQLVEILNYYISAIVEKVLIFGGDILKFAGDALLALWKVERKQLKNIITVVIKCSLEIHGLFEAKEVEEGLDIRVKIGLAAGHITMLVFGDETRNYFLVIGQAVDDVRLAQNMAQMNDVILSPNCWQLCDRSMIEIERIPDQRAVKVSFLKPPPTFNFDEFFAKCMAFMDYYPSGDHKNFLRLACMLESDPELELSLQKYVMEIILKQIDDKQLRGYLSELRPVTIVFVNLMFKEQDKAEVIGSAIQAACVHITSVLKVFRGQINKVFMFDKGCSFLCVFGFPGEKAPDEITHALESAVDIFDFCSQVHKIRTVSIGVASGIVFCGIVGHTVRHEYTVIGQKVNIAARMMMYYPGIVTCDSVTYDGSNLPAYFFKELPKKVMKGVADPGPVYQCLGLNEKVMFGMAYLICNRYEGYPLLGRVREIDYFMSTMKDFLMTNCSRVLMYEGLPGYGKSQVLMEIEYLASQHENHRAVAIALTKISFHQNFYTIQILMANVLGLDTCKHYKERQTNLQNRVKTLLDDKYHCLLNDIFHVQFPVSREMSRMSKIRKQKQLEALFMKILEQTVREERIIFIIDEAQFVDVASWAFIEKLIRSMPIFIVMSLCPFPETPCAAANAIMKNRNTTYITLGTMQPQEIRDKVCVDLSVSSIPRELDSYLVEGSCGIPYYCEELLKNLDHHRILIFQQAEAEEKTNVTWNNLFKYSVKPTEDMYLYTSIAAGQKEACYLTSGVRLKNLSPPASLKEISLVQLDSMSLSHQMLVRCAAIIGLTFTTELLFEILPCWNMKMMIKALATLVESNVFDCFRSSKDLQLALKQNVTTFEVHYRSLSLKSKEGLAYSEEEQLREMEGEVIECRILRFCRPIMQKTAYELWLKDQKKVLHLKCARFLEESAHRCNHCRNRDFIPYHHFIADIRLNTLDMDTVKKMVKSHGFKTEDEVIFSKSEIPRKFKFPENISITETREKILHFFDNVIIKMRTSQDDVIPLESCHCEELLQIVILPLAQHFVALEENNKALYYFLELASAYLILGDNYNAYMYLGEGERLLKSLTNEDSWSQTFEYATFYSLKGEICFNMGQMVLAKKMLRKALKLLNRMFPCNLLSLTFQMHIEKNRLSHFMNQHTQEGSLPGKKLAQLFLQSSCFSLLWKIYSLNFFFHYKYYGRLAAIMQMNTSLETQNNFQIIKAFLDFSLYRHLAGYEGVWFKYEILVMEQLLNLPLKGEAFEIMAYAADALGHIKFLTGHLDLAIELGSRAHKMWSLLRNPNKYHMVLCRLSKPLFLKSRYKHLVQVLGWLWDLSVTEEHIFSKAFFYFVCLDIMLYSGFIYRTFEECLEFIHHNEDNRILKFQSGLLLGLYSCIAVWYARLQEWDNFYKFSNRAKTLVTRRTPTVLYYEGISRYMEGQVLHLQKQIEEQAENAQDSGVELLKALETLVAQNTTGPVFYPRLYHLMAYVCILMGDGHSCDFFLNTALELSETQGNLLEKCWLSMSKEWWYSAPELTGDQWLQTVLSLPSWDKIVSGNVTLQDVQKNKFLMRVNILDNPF

T4 sequence (O32393 1-1202): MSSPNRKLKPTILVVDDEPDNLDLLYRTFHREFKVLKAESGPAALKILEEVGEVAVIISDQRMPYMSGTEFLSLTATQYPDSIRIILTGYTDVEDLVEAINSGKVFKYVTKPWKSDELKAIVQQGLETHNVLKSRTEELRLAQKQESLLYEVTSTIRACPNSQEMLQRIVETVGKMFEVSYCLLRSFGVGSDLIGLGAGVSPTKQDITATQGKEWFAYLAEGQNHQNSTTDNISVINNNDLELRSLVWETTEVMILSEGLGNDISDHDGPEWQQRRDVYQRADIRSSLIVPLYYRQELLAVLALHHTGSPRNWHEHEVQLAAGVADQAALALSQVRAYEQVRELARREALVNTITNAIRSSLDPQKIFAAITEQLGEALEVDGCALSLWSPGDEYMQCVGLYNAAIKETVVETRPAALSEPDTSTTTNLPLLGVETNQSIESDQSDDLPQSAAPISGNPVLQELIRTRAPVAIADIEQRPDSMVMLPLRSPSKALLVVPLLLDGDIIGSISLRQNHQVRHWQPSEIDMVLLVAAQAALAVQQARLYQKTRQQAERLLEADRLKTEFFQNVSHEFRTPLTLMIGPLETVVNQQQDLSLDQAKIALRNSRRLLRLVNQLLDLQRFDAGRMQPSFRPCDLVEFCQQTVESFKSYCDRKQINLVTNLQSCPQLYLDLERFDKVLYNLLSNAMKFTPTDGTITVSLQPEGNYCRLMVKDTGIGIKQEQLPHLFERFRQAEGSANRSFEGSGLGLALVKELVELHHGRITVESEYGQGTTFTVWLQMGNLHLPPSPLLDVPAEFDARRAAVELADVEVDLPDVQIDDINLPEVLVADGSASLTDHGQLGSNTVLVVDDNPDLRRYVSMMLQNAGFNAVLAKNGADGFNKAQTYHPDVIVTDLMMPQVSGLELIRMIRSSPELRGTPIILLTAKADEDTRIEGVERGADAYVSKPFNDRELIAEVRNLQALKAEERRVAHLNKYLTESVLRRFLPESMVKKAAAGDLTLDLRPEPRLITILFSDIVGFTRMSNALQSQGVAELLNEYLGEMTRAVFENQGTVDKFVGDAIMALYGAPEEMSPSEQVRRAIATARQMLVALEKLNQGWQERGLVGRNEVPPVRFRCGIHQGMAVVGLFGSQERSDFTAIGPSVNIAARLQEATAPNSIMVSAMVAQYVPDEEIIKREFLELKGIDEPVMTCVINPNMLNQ
Sequence of sACfl (Q9Z286 whole entry): as the sequence (Q9Z286 whole entry) above
T2 sequence (Q9Z286 whole entry, the tested form may be a part): as the sequence (Q9Z286 whole entry) above

Nc1ncnc2c1ncn2[C@H]1CC[C@@H](CO)O1 [2′,3′-dideoxyadenosine]
Sensitivity of sAC to P site ligand (truncated form of sAC): insensitivity

Nc1ncnc2c1ncn2[C@@H]1O[C@H](COP(=O)(O)OP(=O)(O)OP(=O)(O)O)[C@@H](O)[C@H]1O [ATP]
Km (sAC [1]): ~1 mM
Km (tmACs): ~100 µM
Km (sAC [2]): 1.2 mM

Nc1nc2c(ncn2[C@@H]2O[C@H](COP(=O)(O)OP(=O)(O)OP(O)(O)=S)[C@@H](O)[C@H]2O)c(=O)[nH]1 [GTPγS]
Response of heterologously expressed sAC to stimulators of tmAC activity [3]: completely insensitive

O=C([O-])O.[K+] [KHCO3]
% Basal (adenylyl cyclase activity relative to activity in the absence of any salts) [4]: 412 ± 6.1%

N[C@@H](Cc1ccc(O)c(O)c1)C(=O)O [L-dopa]
Potency of sAC inhibition relative to catechol estrogens (fold less potent) (soluble adenylyl cyclase): 1,000 fold

O=P([O-])([O-])O.[Na+].[Na+] [Na2HPO4]
% Basal (adenylyl cyclase activity relative to activity in the absence of any salts) [4]: 75 ± 2.6%

O=S([O-])[O-].[Na+].[Na+] [Na2SO3]
% Basal (adenylyl cyclase activity relative to activity in the absence of any salts) [4]: 164 ± 2.9%

O=S(=O)([O-])[O-].[Na+].[Na+] [Na2SO4]
% Basal (adenylyl cyclase activity relative to activity in the absence of any salts) [4]: 66 ± 4.6%

[Cl-].[Na+] [NaCl]
% Basal (adenylyl cyclase activity relative to activity in the absence of any salts) [4]: 93 ± 11.8%

O=C(O)O [NaHCO3]
EC50 [4]: 25.4 ± 7.6 mM
Fold stimulation of purified enzyme ([4]; 0-80 mM NaHCO3, 10 mM ATP, 40 mM MgCl2): greater than seven-fold
% Basal (adenylyl cyclase activity relative to activity in the absence of any salts) [4]: 411 ± 5.3%
Effect on immunoprecipitated AC activity (sAC [5]): stimulated
Adenylyl cyclase activity in cellular lysates from HEK293/sACfl (sACfl; 50 mM NaHCO3): stimulated
Cellular cAMP accumulation in HEK293/sACfl (sACfl; after 24 hours bicarbonate starvation): stimulated cAMP accumulation
Cellular cAMP accumulation in HEK293/V [6]: not in vector transfected HEK293 cells
Cellular cAMP accumulation in HEK293/V ([6]; listed as bicarbonate): unaffected
tmAC activity submaximally stimulated by forskolin ([6]; with forskolin): insensitive
Fold stimulation of CyaC AC activity (Spirulina platensis CyaC [7]): 2.5 fold
EC50 (Spirulina platensis CyaC [8]): 18.8 ± 1.6 mM

O=S([O-])O.[Na+] [NaHSO3]
% Basal (adenylyl cyclase activity relative to activity in the absence of any salts) [4]: 138 ± 4.6%

NCCc1ccc(O)c(O)c1 [dopamine]
Potency of sAC inhibition relative to catechol estrogens (fold less potent) (soluble adenylyl cyclase): 1,000 fold

NC[C@H](O)c1ccc(O)c(O)c1 [norepinephrine]
Potency of sAC inhibition relative to catechol estrogens (fold less potent) (soluble adenylyl cyclase): 1,000 fold

CC(C)CC[C@@H](O)[C@](C)(O)[C@H]1CC[C@@]2(O)C3=CC(=O)[C@@H]4C[C@@H](O)[C@@H](O)C[C@]4(C)[C@H]3CC[C@]12C [ponasterone A]
sAC activity in cells with ecdysone inducible sAC expression (sAC [9]): dependent increase in sAC activity

mammalian ortholog of yeast CAP (Cyclase Associated Protein)
sAC activity on co-expression [10]: 4 fold

B1: mammalian CAP: mammalian ortholog of yeast Cyclase Associated Protein, co-expressed with sAC (protein, UniProt Q01518 2-475, looked up)
Adenylyl cyclase-associated …: ADMQNLVERLERAVGRLEAVSHTSDMHRGYADSPSKAGAAPYVQAFDSLLAGPVAEYLKISKEIGGDVQKHAEMVHTGLKLERALLVTASQCQQPAENKLSDLLAPISEQIKEVITFREKNRGSKLFNHLSAVSESIQALGWVAMAPKPGPYVKEMNDAAMFYTNRVLKEYKDVDKKHVDWVKAYLSIWTELQAYIKEFHTTGLAWSKTGPVAKELSGLPSGPSAGSCPPPPPPCPPPPPVSTISCSYESASRSSLFAQINQGESITHALKHVSDDMKTHKNPALKAQSGPVRSGPKPFSAPKPQTSPSPKRATKKEPAVLELEGKKWRVENQENVSNLVIEDTELKQVAYIYKCVNTTLQIKGKINSITVDNCKKLGLVFDDVVGIVEIINSKDVKVQVMGKVPTISINKTDGCHAYLSKNSLDCEIVSAKSSEMNVLIPTEGGDFNEFPVPEQFKTLWNGQKLVTTVTEIAG
Increase of sAC activity on co-expression (sAC [11]): approximately four-fold
